Results reported in patent EP0586525B1, “CARBOXAMIDO-(1,2N)-CARBOCYCLIC-2-AMINOTETRALIN DERIVATIVES” (priority 1991, dated 1992).

What was measured:
rat hepatocytes = assay: In vitro rat hepatocyte intrinsic clearance; type: in vitro ADME; conditions: for relative metabolic stability (rel. stab.): relative to cis-(±)2,3,3a,4,5,9b-hexahydro-9-carboxamido-3-(n-propyl)-1H-benz[e]indole, rat hepatocytes; for In vitro hepatocyte assay clearance: 2, 5 and 15 µg/ml, 60 minute incubation at 37°C, rat hepatocytes 5.0 million cells/ml
Protocol: Aliquots of each incubate were withdrawn at preset times during the incubation and analyzed for parent compound using HPLC methodology. Intrinsic clearance is expressed as ml/min/5 million cells and metabolic stability relative to cis-(+)2,3,3a,4,5,9b-hexahydro-9-carboxamide-3-(n-propyl)-1H-benz[e]indole is determined.

[1] = test system: dorsal raphe 5-HT cell firing; assay: 5-HT cell firing in chloral hydrate anesthetized rats; type: in vivo; conditions: Rattus norvegicus, iv, read-out: Depression of 5-HT cell firing, ED50
From the text: 5-HT Cell Firing: The i.v. mg/kg dose causing a 50% depression in the firing of dorsal raphe 5-HT cell firing in chloral hydrate anesthetized rats.

[2] = Blood pressure at the SND ED50 dose (BP SND/MAX); type: in vivo; conditions: at the dose which inhibited sympathetic activity by 50%, i.v., chloralose anesthetized cats
Protocol: BP SND/MAX: The blood pressure of the chloralose anesthetized cats in percent control at the dose causing 50% depression in SND and the maximum reduction in blood pressure as percent of the control blood pressure in the same animals observed in the dose range tested (0.001-1.0 mg/kg i.v.).

Mouse hypothermia = type: in vivo; conditions: dose depressing temperature by 2°C or more in two of four mice
Protocol: Hypothermia: Starting with a dose of 30 mg/kg, four mice are injected subcutaneously with test compound. Twenty minutes later, the number of animals whose body temperature has decreased by 2°C. or more are counted. If all four animals reach criteria, the drug is considered "active", and subsequent readings are taken at 60 and 120 minutes after drug. The time for last statistically significant drug affect on mean body temperature is indicated in minutes. […] Active compounds are retested using oral administration. Potency is given as mg/kg ED50 (dose required to depress temperature in two of four mice) as measured by Spearman-Karber statistics.

[3] = biological target: T1, 5-hydroxytryptamine (5-HT1A) receptor (Bos taurus, UniProt F6Q2H9); assay: Inhibition of 8-OH-DPAT binding in a bovine brain homogenate; conditions: read-out: Binding at the 5-HT1A receptor site, IC50
T1 construct: from tissue; host or cells: bovine brain homogenate
T1 sequence (F6Q2H9 1-422): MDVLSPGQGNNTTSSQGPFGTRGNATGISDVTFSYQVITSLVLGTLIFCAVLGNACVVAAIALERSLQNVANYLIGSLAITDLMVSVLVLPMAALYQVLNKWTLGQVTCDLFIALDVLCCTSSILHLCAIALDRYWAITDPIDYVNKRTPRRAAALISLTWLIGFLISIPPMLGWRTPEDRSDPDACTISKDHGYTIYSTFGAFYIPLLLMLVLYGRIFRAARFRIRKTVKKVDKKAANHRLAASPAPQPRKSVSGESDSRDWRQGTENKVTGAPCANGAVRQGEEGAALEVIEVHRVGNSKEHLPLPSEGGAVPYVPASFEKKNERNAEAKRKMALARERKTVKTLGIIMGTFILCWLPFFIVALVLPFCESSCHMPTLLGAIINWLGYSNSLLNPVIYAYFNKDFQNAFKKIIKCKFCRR
From the text: Binding: Inhibition of 8-OH-DPAT binding in a bovine brain homogenate. Potency is given as nM dose required to inhibit 50% of DPAT binding (IC50). This test measures ability to bind to 5-hydroxytryptamine (5-HT1A) receptor.

[4] = test system: spontaneous sympathetic activity; assay: Sympathetic nerve discharge (SND) in chloralose anesthetized cats; type: in vivo; conditions: Felis catus, iv, dose range 0.001-1.0 mg/kg, read-out: Sympathetic nerve discharge, ED50 dose which inhibits spontaneous sympathetic activity
Protocol: Sympathetic Nerve Discharge (SND): The i.v. mg/kg dose causing a 50% depression in SND in chloralose anesthetized cats and the maximum inhibition of sympathetic activity observed in the dose range tested (0.001-1.0 mg/kg i.v.).

[5] = Oral plasma bioavailability; type: in vivo; conditions: rat, 6 mg/kg, conscious rats
Protocol: Oral Bioavailability: Comparison of the disappearance of compound from plasma following oral (6 mg/kg) and intravenous (2 mg/kg) administration in conscious rats. Parent compound in plasma was measured at multiple time points following administration using HPLC methodology. Bioavailability is expressed as a percentage of the drug in plasma following oral administration compared to that following intravenous administration.

[6] = Pharmacokinetics following constant infusion (steady state clearance); conditions: plasma, iv; after 12 hour infusion (300 µg/hour), anesthetized rat; read-out: In vivo steady state clearance
Protocol: Pharmacokinetics Following Constant Infusion: Clearance rate (ml/min/kg) was determined following a 12 hour infusion (300 µg/hour) of compound in the anesthetized rat. Disappearance of parent compound from plasma was measured at multiple time points following cessation of the infusion using HPLC methodology.

[7] = rat, in vivo; cited from earlier work
[8] = sc, subcutaneous (s.c.) administration

| Structure (SMILES) | relative metabolic stability (rel. stab.) (rat hepatocytes) | ED50 [1] [mg/kg] | Percent of control arterial blood pressure [2] [%] | ED50 (Mouse hypothermia; oral (p.o.) administration) [mg/kg] | ED50 (Mouse hypothermia; [8]) [mg/kg] | IC50 [3] [nM] | In vitro hepatocyte assay clearance (rat hepatocytes) | ED50 [4] [mg/kg] | bioavailability ([5]; Study 1, oral 6 mg/kg vs i.v. 2 mg/kg) [%] | bioavailability ([5]; Study 2, samples taken for 24 hours after administration, oral 6 mg/kg vs i.v. 2 mg/kg) [%] | clearance [6] [mL/min/kg] | bioavailability ([5]; study not given, oral 6 mg/kg vs i.v. 2 mg/kg) [%] | plasma oral bioavailability [7] [%] |
| --- | --- | --- | --- | --- | --- | --- | --- | --- | --- | --- | --- | --- | --- |
| CCCN1CCC[C@H]2c3c(cccc3C(N)=O)CC[C@@H]21 (single isomer, unassigned) [Compound 6, trans-(+)1,2,3,4,4a,5,6,10b-octahydro-10-carboxamido-4-(n-propyl)-benzo[f]quinoline] | 1.05 | – | – | – | – | – | – | – | – | – | – | – | – |
| CCCN1CC[C@H]2c3c(cccc3C(N)=O)CC[C@H]21 (racemic) [Compound 1, cis-(±)2,3,3a,4,5,9b-hexahydro-9-carboxamido-3-(n-propyl)-1H-benz[e]indole] | 1.0 | 0.002 | 82 | 7.3 | 0.97 | 5.2 | .013 ml/min/5 million cells | 0.037 | 59 | 70 | 58 | – | – |
| CCCN1CCCC2c3c(cccc3C(N)=O)CCC21 (single isomer, unassigned) [Compound 5, trans-(-)1,2,3,4,4a,5,6,10b-octahydro-10-carboxamido-4-(n-propyl)-benzo[f]quinoline] | 3.59 | > 0.1 | 85 | – | 1.73 | 1.5 | .012 ml/min/5 million cells | 0.15 | – | – | 43 | 86 | – |
| CCCN1CCCC2c3c(cccc3C(N)=O)CCC21 (racemic) [Compound 4, trans-(±)1,2,3,4,4a,5,6,10b-octahydro-10-carboxamido-4-(n-propyl)-benzo[f]quinoline] | – | – | – | 4.1 | 0.23 | 3.7 | – | – | – | – | – | – | – |
| CCCN(CCC)C1CCc2cccc(O)c2C1 (centres unmarked) [8-OH DPAT] | – | – | – | – | – | – | – | – | – | – | – | – | < 5 |
| CCCN1CCC2c3c(cccc3C(N)=O)CCC21 (single isomer, unassigned) [Compound 3, cis-(+)2,3,3a,4,5,9b-hexahydro-9-carboxamido-3-(n-propyl)-1H-benz[e]indole] | – | > 0.3 | – | – | – | 533 | – | > 1 | – | – | – | – | – |
| CCCN1CC[C@H]2c3c(cccc3C(N)=O)CC[C@H]21 (single isomer, unassigned) [Compound 2, cis-(-)2,3,3a,4,5,9b-hexahydro-9-carboxamido-3-(n-propyl)-1H-benz[e]indole] | – | 0.006 | 84 | – | – | 10.2 | – | 0.019 | – | – | – | – | – |
